Format in all cases: biochemical
One assay concerns the target T1, Cathepsin S (Homo sapiens, UniProt P25774).
T1 construct: purchased Biovision K149-100
The assay is described as follows: IC50 determination against Cathepsin S (Biovision kit K149-100). To be noted: CTSS. As for the experimental part: (§1) 2. Method for determining IC50 of compounds against cathepsin:
IC50 of compounds against Cathepsin S was determined by using Cathepsin S Inhibitor Screening Kit (Product No. K149-100) from Biovision Company.
2.1.1.4 Preparation of Cathepsin S solution: Cathepsin S enzyme (46 μl) was added to Cathepsin S buffer (2254 μl), and mixed well, to prepare Cathepsin S enzyme solution with a volume of 2.3 ml, which was placed on ice for further use.
(§2) 2.1.2 Preparation of compound solutions: 30 mM and 10 mM compound stock solutions, and control compounds were gradiently diluted in DMSO at a ratio of 1:3, wherein the maximum dilution fold was 19683; the gradiently diluted compound solution (3 μl) was added to Cathepsin K, B, L, and S buffer (27 μl), respectively, and mixed well, wherein the control compounds (FF-FMK, F-F-FMK, FF-FMK and Z-FF-FMK) were at the concentrations of 66.67, 22.22, 7.41, 2.47, 0.82, 0.27, 0.091, 0.03, 0.01, 0.0034 and 0 μM, respectively, the test compounds were at the concentrations of 1000, 333.3, 111.1, 37, 12.3, 4.1, 1.4, 0.46, 0.15, 0.05 and 0 μM, respectively, and the final concentration of DMSO was 10%.
2.1.3.4 Cathepsin S: Cathepsin S substrate (90 μl) was added to Cathepsin S buffer (1710 μl), and mixed well, to prepare Cathepsin S substrate solution with a volume of 1.8 ml, which was placed on ice for further use.
(§3) Method for screening cathepsin inhibitors: the cathepsin solution (prepared in Item 2.1.1) was added to a 384-well plate (ProxiPlate-384 Plus, Perkinelmer) at 10 μl/well, and centrifuged at 1000 rpm for Imin; the compound solution (prepared in Item 2.1.2) was then added at 2 μl/well, and every concentration was repeated in two wells; the final concentrations of the test compounds were 100, 33.3, 11.1, 3.7, 1.23, 0.41, 0.14, 0.046, 0.015, 0.005 and 0 μM, respectively, wherein the final concentration of DMSO was 1%; after centrifugation at 1000 rpm for 1 min, the plate was put in a 25° C. incubator for 15 min; the cathepsin substrate solution was then added at 8 µl/well, and centrifuged at 1000 rpm for 1 min; and finally, the fluorescence signal was read in Enspire, wherein the exciting light was at a wavelength of 400 nm, the emitting light was at a wavelength of 505 nm, and continuous reading was performed at 37° C. for 120 min.
(§4) Data analysis: the slope (S) for all the samples was calculated by ΔRFU(RFU2−RFU1) and time ΔT(T2−T1), including negative control (Enzyme Control, EC) and positive control (Inhibitor Control, IC: 10 μM (FF-FMK, F-F-FMK, FF-FMK and Z-FF-FMK), and the calculation formula was as followed: Relative inhibition rate %=(SEC−SS)/(SEC−SIC)*100. The IC50 for each compound was obtained by means of fitting by software GraphPad Prism 5.0.

The target of a further assay is T2, Cathepsin L (Homo sapiens, UniProt P07711).
T2 construct: purchased Biovision K161-100
The assay can be described thus: IC50 determination against Cathepsin L (Biovision kit K161-100). As to conditions: CTSL. How it is done: as §1
IC50 of compounds against Cathepsin L was determined by using Cathepsin L Inhibitor Screening Kit (Product No. K161-100) from Biovision Company;
2.1.1.3 Preparation of Cathepsin L solution: Cathepsin L reagent (3 μl) was added to Cathepsin L enzyme (3 μl), mixed well, and on standing for 1 h, to get 1 mU/μl Cathepsin L enzyme solution. Cathepsin L buffer (24 μl) was added to 1 mU/μl cathepsin L enzyme solution (6 μl), to get 0.2 mU/μl Cathepsin L enzyme solution. 0.2 mU/μl cathepsin L enzyme (23 μl), and DTT (46 μl) were added to Cathepsin L buffer (2231 μl), and mixed well, to prepare Cathepsin L enzyme solution with a volume of 2.3 ml, which was placed on ice for further use.
as §2
2.1.3.3 Cathepsin L: Cathepsin L substrate (45 μl) was added to Cathepsin L buffer (1755 μl), and mixed well, to prepare Cathepsin L substrate solution with a volume of 1.8 ml, which was placed on ice for further use.
as §3, §4

A further assay addresses T3, Cathepsin K (Homo sapiens, UniProt P43235).
T3 construct: purchased Biovision K150-100
T3 sequence (P43235 115-329): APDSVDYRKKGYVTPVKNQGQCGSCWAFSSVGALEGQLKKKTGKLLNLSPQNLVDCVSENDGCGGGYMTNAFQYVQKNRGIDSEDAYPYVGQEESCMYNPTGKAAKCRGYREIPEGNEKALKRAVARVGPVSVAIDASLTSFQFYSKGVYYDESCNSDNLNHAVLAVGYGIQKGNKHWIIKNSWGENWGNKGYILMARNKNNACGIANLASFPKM
The assay is described as follows: IC50 determination against Cathepsin K (Biovision kit K150-100). As to conditions: CTSK. How it is done: as §1
IC50 of compounds against Cathepsin K was determined by using Cathepsin K Inhibitor Screening Kit (Product No. K150-100) from Biovision Company;
2.1.1.1 Preparation of Cathepsin K solution: Cathepsin K enzyme (23 μl) and Cathepsin K reagent (46 μl) were added to Cathepsin K buffer (2231 μl), and mixed well, to prepare Cathepsin K enzyme solution with a volume of 2.3 ml, which was placed on ice for further use.
as §2
2.1.3.1 Cathepsin K: Cathepsin K substrate (90 μl) was added to Cathepsin K buffer (1710 μl), and mixed well, to prepare Cathepsin K substrate solution with a volume of 1.8 ml, which was placed on ice for further use.
as §3, §4

The mark [1] stands for this setting: Exp-1, read-out: IC50 (nM) Exp-1.
Where [2] appears, read: Exp-2, read-out: IC50 (nM) Exp-2.
[3] abbreviates: average of Exp-1 and Exp-2, read-out: Ave of IC50.

In US10647690B2, “2,3-epoxy succinyl derivative, preparation method and use thereof” (Institute of Pharmacology and Toxicology Academy of …, priority 2016, dated 2020) one finds IC50 data, which are given here for seven molecules.

Where two headings read alike, the source gives them in different places.

T2 sequence (P07711 114-333): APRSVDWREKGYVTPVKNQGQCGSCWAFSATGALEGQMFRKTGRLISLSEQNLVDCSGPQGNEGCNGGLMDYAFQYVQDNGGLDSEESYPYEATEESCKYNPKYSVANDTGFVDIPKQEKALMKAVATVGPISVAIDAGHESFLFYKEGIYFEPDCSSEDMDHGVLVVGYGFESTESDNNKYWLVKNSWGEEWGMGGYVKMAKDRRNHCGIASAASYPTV
T1 sequence (P25774 115-331): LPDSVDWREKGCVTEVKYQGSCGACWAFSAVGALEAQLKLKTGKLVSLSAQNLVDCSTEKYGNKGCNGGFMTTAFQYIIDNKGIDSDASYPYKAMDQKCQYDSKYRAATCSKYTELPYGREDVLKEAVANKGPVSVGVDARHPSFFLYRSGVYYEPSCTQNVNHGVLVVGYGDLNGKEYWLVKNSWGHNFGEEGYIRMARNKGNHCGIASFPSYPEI

As to `CCCCCCNC(=O)[C@H](CCSC)NC(=O)[C@H]1O[C@@H]1C(=O)OCC` [Compound 5, (2s, 3s)-2-ethoxycarbonyl-3-[2-[(s)-4-methylthio-1-carbonyl-1-(hexylamino)butane]formylamino]epoxysuccinic acid], the IC50 came to 4080 nM on Cathepsin S (setting [1]); 4140 nM on Cathepsin S (setting [2]); 4110 nM on Cathepsin S (setting [3]); 2270 nM at Cathepsin L (setting [1]); 2330 nM at Cathepsin L (setting [2]); 2300 nM at Cathepsin L (setting [3]). Also, the IC50 turned out to be 1680 nM at Cathepsin K (setting [1]), 1320 nM on Cathepsin K (setting [2]) and 1500 nM at Cathepsin K (setting [3]).
As to `CCOC(=O)[C@H]1O[C@@H]1C(=O)N[C@@H](CCSC)C(=O)NCCCc1ccccc1` [Compound 8, (2s, 3s)-2-ethoxycarbonyl-3-[2-[(s)-4-methylthio-1-carbonyl-1-(3-phenylpropylamino)butane]formylamino]epoxysuccinic acid], the IC50 at Cathepsin S (setting [1]) is 10600 nM; on Cathepsin S (setting [2]) it was 9450 nM; at Cathepsin S (setting [3]), 10000 nM; at Cathepsin L (setting [1]) it was 3610 nM; on Cathepsin L (setting [2]), 4450 nM; on Cathepsin L (setting [3]), 4030 nM. Besides, the results for the IC50 on Cathepsin K (setting [1]), at Cathepsin K (setting [2]) and on Cathepsin K (setting [3]) were 2950 nM, 1500 nM and 2220 nM, respectively.
Regarding `CCOC(=O)[C@H]1O[C@@H]1C(=O)N[C@@H](CCSC)C(=O)N1CCC(c2ccccc2)CC1` [Compound 13, (2s, 3s)-2-ethoxycarbonyl-3-[2-[(s)-4-methylthio-1-carbonyl-1-(phenylpiperidinyl)butane]formylamino]epoxysuccinic acid], the IC50 at Cathepsin S (setting [1]) turned out to be 1900 nM; at Cathepsin S (setting [2]), 957 nM; on Cathepsin S (setting [3]), 1430 nM; on Cathepsin L (setting [1]), 5880 nM; at Cathepsin L (setting [2]) it was 6630 nM; on Cathepsin L (setting [3]) it was 6250 nM. For the same molecule, the values for the IC50 on Cathepsin K (setting [1]), on Cathepsin K (setting [2]) and on Cathepsin K (setting [3]) were 180 nM, 148 nM and 164 nM, respectively.
In the case of `CCOC(=O)[C@H]1O[C@@H]1C(=O)N[C@@H](CCSC)C(=O)NCCc1cccc(F)c1` [Compound 34, (2s, 3s)-2-ethoxycarbonyl-3-[2-[(s)-4-methylthio-1-carbonyl-1-(3-fluorophenylethylamino)butane]formylamino]epoxysuccinic acid], the IC50 came to 1600 nM on Cathepsin S (setting [1]); 1660 nM on Cathepsin S (setting [2]); 1630 nM on Cathepsin S (setting [3]); 338 nM on Cathepsin L (setting [1]); 382 nM on Cathepsin L (setting [2]); 360 nM on Cathepsin L (setting [3]). The figures for the IC50 on Cathepsin K (setting [1]), at Cathepsin K (setting [2]) and on Cathepsin K (setting [3]) were 586 nM, 448 nM and 517 nM, respectively.
Take `CCOC(=O)[C@H]1O[C@@H]1C(=O)N[C@@H](CCSC)C(=O)NC(CC)CC` [Compound 39, (2s, 3s)-2-ethoxycarbonyl-3-[2-[(s)-4-methylthio-1-carbonyl-1-(1-ethylpropylamino)butane]formylamino]epoxysuccinic acid]: the IC50 on Cathepsin S (setting [1]) amounted to 5110 nM; on Cathepsin S (setting [2]), 8750 nM; at Cathepsin S (setting [3]), 6930 nM; on Cathepsin L (setting [1]), 9250 nM; on Cathepsin L (setting [2]), 9950 nM; on Cathepsin L (setting [3]), 9600 nM. In addition, the IC50 came to 1680 nM on Cathepsin K (setting [1]), 1610 nM on Cathepsin K (setting [2]) and 1650 nM on Cathepsin K (setting [3]).
Turning to `CCOC(=O)[C@H]1O[C@@H]1C(=O)N[C@@H](CCSC)C(=O)NCCCCc1ccccc1` [Compound 40, (2s, 3s)-2-ethoxycarbonyl-3-[2-[(s)-4-methylthio-1-carbonyl-1-(4-phenylbutylamino)butane]formylamino]epoxysuccinic acid], the IC50 worked out at 834 nM at Cathepsin S (setting [1]); 1510 nM on Cathepsin S (setting [2]); 1170 nM on Cathepsin S (setting [3]); 4160 nM on Cathepsin L (setting [1]); 4610 nM at Cathepsin L (setting [2]); 4390 nM at Cathepsin L (setting [3]). Further, the IC50 at Cathepsin K (setting [1]) came out at 704 nM; on Cathepsin K (setting [2]), 606 nM; on Cathepsin K (setting [3]), 655 nM.
For `CCOC(=O)[C@H]1O[C@@H]1C(=O)N[C@@H](CC(C)C)C(=O)NCCC(C)C` [zxy-37, E64d, reference compound], the IC50 at Cathepsin S (setting [1]) was determined as 753 nM; on Cathepsin S (setting [2]) it was 571 nM; at Cathepsin S (setting [3]) it was 662 nM; at Cathepsin L (setting [1]), 171 nM; at Cathepsin L (setting [2]), 180 nM; at Cathepsin L (setting [3]), 175 nM. The IC50 turned out to be 488 nM at Cathepsin K (setting [1]), 465 nM at Cathepsin K (setting [2]) and 477 nM at Cathepsin K (setting [3]).
